Measurements as given in patent US9695155B2, “Herbicidal substituted pyrimidinyloxy benzene compounds” (E. I. DU PONT DE NEMOURS AND COMPANY, priority 2013, dated 2017).

What was measured:
pigweed [1] = assay: Test A preemergence; type: in vivo, Amaranthus retroflexus; conditions: Amaranthus retroflexus, pre-emergence
Method in brief: (§1)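 Visual 0–100 rating (100 = complete control) taken about 10 d post-treatment relative to untreated checks. Preemergence: directed soil spray on sown loam/sand pots. Postemergence: seedlings 2–10 cm, 1–2 leaf. Non-phytotoxic solvent formulation with surfactant.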

wheat = assay: Test A preemergence; type: in vivo, Triticum aestivum
Method in brief: as §1

large (Lg) crabgrass = assay: Test A postemergence; type: in vivo, Digitaria sanguinalis; conditions: Digitaria sanguinalis, post-emergence, 240 h
Method in brief: as §1

giant foxtail = assay: Test A postemergence; type: in vivo, Setaria faberii; conditions: Setaria faberi, post-emergence, 240 h
Method in brief: as §1

velvetleaf = assay: Test A postemergence; type: in vivo, Abutilon theophrasti; conditions: Abutilon theophrasti, post-emergence, 240 h
Method in brief: as §1

corn = assay: Test A postemergence; type: in vivo, Zea mays; conditions: Zea mays, post-emergence, 240 h
Method in brief: as §1

lambsquarters [2] = assay: Test C preemergence; type: in vivo, Chenopodium album; conditions: Chenopodium album, pre-emergence
Method in brief: (§2)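 Visual injury score versus untreated controls, 0 = no effect, 100 = complete control, taken 13 to 15 days after treatment in the greenhouse. Pre-emergence pots held loam/sand; post-emergence plants grew in sphagnum peat/vermiculite mix and were sprayed at the 1- to 4-leaf stage.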

yellow nutsedge = assay: Test C preemergence; type: in vivo, Cyperus esculentus; conditions: Cyperus, pre-emergence, preemergence, scale 0 (no effect) to 100 (complete control), read-out: Nutsedge, Yellow plant response rating
Method in brief: as §2

pigweed [3] = assay: Test C preemergence; type: in vivo, Amaranthus retroflexus; conditions: Amaranthus retroflexus, pre-emergence
Method in brief: as §2

ragweed = assay: Test C preemergence; type: in vivo, Ambrosia elatior; conditions: Ambrosia artemisiifolia, pre-emergence
Method in brief: as §2

waterhemp = assay: Test C preemergence; type: in vivo, Amaranthus rudis; conditions: Amaranthus tuberculatus, pre-emergence
Method in brief: as §2

galium = assay: Test C postemergence; type: in vivo, Galium aparine; conditions: Galium, post-emergence
Method in brief: as §2

lambsquarters [4] = assay: Test C postemergence; type: in vivo, Chenopodium album; conditions: Chenopodium album, post-emergence
Method in brief: as §2

morningglory = assay: Test C postemergence; type: in vivo, Ipomoea coccinea; conditions: Ipomoea, post-emergence
Method in brief: as §2

kochia = assay: Test C postemergence; type: in vivo, Kochia scoparia; conditions: Bassia scoparia, post-emergence
Method in brief: as §2

[5] = 125 g ai/ha, 0 to 100 scale where 0 is no effect and 100 is complete control

`N#Cc1cccc(Oc2ncc(Br)cn2)c1-n1cc(C(F)(F)F)cn1` [Compound 59, 3-[(5-bromo-2-pyrimidinyl)oxy]-2-[4-(trifluoromethyl)-1H-pyrazol-1-yl]benzonitrile] was tested, and the pest or weed control at 125 g/ha (pigweed [1]; 125 g ai/ha, 0 to 100 scale where 0 is no effect and 100 is complete control, read-out: Plant response rating, Pigweed) was 100%, the pest or weed control at 500 g/ha (pigweed [1]; 240 h, 500 g ai/ha, 0 to 100 scale, 0 no effect, 100 complete control, approx. 10 days, read-out: Pigweed plant response rating) was 100% and the “Plant response rating, Wheat” value (wheat; [5]) was 20. For the same molecule, the plant injury at 500 g/ha (wheat; Triticum aestivum, pre-emergence, 240 h, 500 g ai/ha, 0 to 100 scale, 0 no effect, 100 complete control, approx. 10 days, read-out: Wheat plant response rating) was 40%, the pest or weed control at 125 g/ha (large (Lg) crabgrass; 125 g ai/ha, 0 to 100 scale where 0 is no effect and 100 is complete control, read-out: Plant response rating, Crabgrass, Large) was 100% and the pest or weed control at 500 g/ha (large (Lg) crabgrass; 500 g ai/ha, 0 to 100 scale, 0 no effect, 100 complete control, read-out: Plant response rating Crabgrass, Large) was 100%. For the same molecule, the pest or weed control at 125 g/ha (giant foxtail; 125 g ai/ha, 0 to 100 scale where 0 is no effect and 100 is complete control, read-out: Plant response rating, Foxtail, Giant) was 100%, the pest or weed control at 500 g/ha (giant foxtail; 500 g ai/ha, 0 to 100 scale, 0 no effect, 100 complete control, read-out: Plant response rating Foxtail, Giant) was 100% and the pest or weed control at 125 g/ha (velvetleaf; 125 g ai/ha, 0 to 100 scale where 0 is no effect and 100 is complete control, read-out: Plant response rating, Velvetleaf) was 100%. It also gave a pest or weed control at 500 g/ha (velvetleaf; 500 g ai/ha, 0 to 100 scale, 0 no effect, 100 complete control, read-out: Plant response rating Velvetleaf) of 100%, a Corn plant response rating (crop injury, 0 = no effect, 100 = complete kill) at 125 g/ha (corn; [5]) of 60% and a plant injury at 500 g/ha (corn; 500 g ai/ha, 0 to 100 scale, 0 no effect, 100 complete control, read-out: Plant response rating Corn) of 100%. For the same molecule, the pest or weed control at 62 g/ha (lambsquarters [2]; 62 g ai/ha, preemergence, scale 0 (no effect) to 100 (complete control), read-out: Lambsquarters plant response rating) was 100%, the pest or weed control at 125 g/ha (lambsquarters [2]; 125 g ai/ha, preemergence, scale 0 (no effect) to 100 (complete control), read-out: Lambsquarters plant response rating) was 100% and the pest or weed control at 250 g/ha (lambsquarters [2]; 250 g ai/ha, preemergence, scale 0 (no effect) to 100 (complete control), read-out: Lambsquarters plant response rating) was 100%. It also gave a pest or weed control at 31 g/ha (lambsquarters [2]; Preemergence, 31 g ai/ha, scale 0 to 100, 0 no effect, 100 complete control, read-out: Plant response rating, Lambsquarters) of 100%, a pest or weed control at 62 g/ha (yellow nutsedge; 62 g ai/ha) of 65% and a pest or weed control at 125 g/ha (yellow nutsedge; 125 g ai/ha) of 85%. For the same molecule, the pest or weed control at 250 g/ha (yellow nutsedge; 250 g ai/ha) was 90%, the pest or weed control at 62 g/ha (pigweed [3]; 62 g ai/ha, preemergence, scale 0 (no effect) to 100 (complete control), read-out: Pigweed plant response rating) was 100% and the pest or weed control at 125 g/ha (pigweed [3]; 125 g ai/ha, preemergence, scale 0 (no effect) to 100 (complete control), read-out: Pigweed plant response rating) was 100%. The pest or weed control at 250 g/ha (pigweed [3]; 250 g ai/ha, preemergence, scale 0 (no effect) to 100 (complete control), read-out: Pigweed plant response rating) was 100%, the pest or weed control at 31 g/ha (pigweed [3]; Preemergence, 31 g ai/ha, scale 0 to 100, 0 no effect, 100 complete control, read-out: Plant response rating, Pigweed) was 100% and the pest or weed control at 62 g/ha (ragweed; 62 g ai/ha, preemergence, scale 0 (no effect) to 100 (complete control), read-out: Ragweed plant response rating) was 95%. The pest or weed control at 125 g/ha (ragweed; 125 g ai/ha, preemergence, scale 0 (no effect) to 100 (complete control), read-out: Ragweed plant response rating) was 100%, the pest or weed control at 250 g/ha (ragweed; 250 g ai/ha, preemergence, scale 0 (no effect) to 100 (complete control), read-out: Ragweed plant response rating) was 100% and the pest or weed control at 31 g/ha (ragweed; Preemergence, 31 g ai/ha, scale 0 to 100, 0 no effect, 100 complete control, read-out: Plant response rating, Ragweed) was 90%. It also gave a pest or weed control at 62 g/ha (waterhemp; 62 g ai/ha, preemergence, scale 0 (no effect) to 100 (complete control), read-out: Waterhemp plant response rating) of 100%, a pest or weed control at 125 g/ha (waterhemp; 125 g ai/ha, preemergence, scale 0 (no effect) to 100 (complete control), read-out: Waterhemp plant response rating) of 100% and a pest or weed control at 250 g/ha (waterhemp; 250 g ai/ha, preemergence, scale 0 (no effect) to 100 (complete control), read-out: Waterhemp plant response rating) of 100%. For the same molecule, the pest or weed control at 31 g/ha (waterhemp; Preemergence, 31 g ai/ha, scale 0 to 100, 0 no effect, 100 complete control, read-out: Plant response rating, Waterhemp) was 100%, the pest or weed control at 125 g/ha (galium; 125 g ai/ha, postemergence, read-out: Plant response rating (0 to 100), Galium) was 90% and the pest or weed control at 250 g/ha (galium; 250 g ai/ha, postemergence, read-out: Plant response rating (0 to 100), Galium) was 90%. The pest or weed control at 31 g/ha (galium; Postemergence, 31 g ai/ha, scale 0 to 100 (0 no effect, 100 complete control), 13 to 15 days, read-out: Plant response rating, Galium) was 65%, the pest or weed control at 62 g/ha (galium; Postemergence, 62 g ai/ha, scale 0 to 100 (0 no effect, 100 complete control), read-out: Plant response rating, Galium) was 80% and the pest or weed control at 125 g/ha (lambsquarters [4]; 125 g ai/ha, postemergence, read-out: Plant response rating (0 to 100), Lambsquarters) was 90%. For the same molecule, the pest or weed control at 250 g/ha (lambsquarters [4]; 250 g ai/ha, postemergence, read-out: Plant response rating (0 to 100), Lambsquarters) was 90%, the pest or weed control at 31 g/ha (lambsquarters [4]; Postemergence, 31 g ai/ha, scale 0 to 100 (0 no effect, 100 complete control), 13 to 15 days, read-out: Plant response rating, Lambsquarters) was 70% and the pest or weed control at 62 g/ha (lambsquarters [4]; Postemergence, 62 g ai/ha, scale 0 to 100 (0 no effect, 100 complete control), read-out: Plant response rating, Lambsquarters) was 80%. It also gave a pest or weed control at 125 g/ha (morningglory; 125 g ai/ha, postemergence, read-out: Plant response rating (0 to 100), Morningglory) of 95%, a pest or weed control at 250 g/ha (morningglory; 250 g ai/ha, postemergence, read-out: Plant response rating (0 to 100), Morningglory) of 95% and a pest or weed control at 31 g/ha (morningglory; Postemergence, 31 g ai/ha, scale 0 to 100 (0 no effect, 100 complete control), 13 to 15 days, read-out: Plant response rating, Morningglory) of 80%. The pest or weed control at 62 g/ha (morningglory; Postemergence, 62 g ai/ha, scale 0 to 100 (0 no effect, 100 complete control), read-out: Plant response rating, Morningglory) was 85%, the pest or weed control at 125 g/ha (kochia; 125 g ai/ha, postemergence, read-out: Plant response rating (0 to 100), Kochia) was 100% and the pest or weed control at 250 g/ha (kochia; 250 g ai/ha, postemergence, read-out: Plant response rating (0 to 100), Kochia) was 100%. It also gave a pest or weed control at 31 g/ha (kochia; Postemergence, 31 g ai/ha, scale 0 to 100 (0 no effect, 100 complete control), 13 to 15 days, read-out: Plant response rating, Kochia) of 95% and a pest or weed control at 62 g/ha (kochia; Postemergence, 62 g ai/ha, scale 0 to 100 (0 no effect, 100 complete control), read-out: Plant response rating, Kochia) of 100%.
